Our source for the inhibition values is patent publication US7109193B2, “Tricyclic diazepines tocolytic oxytocin receptor antagonists” (Wyeth, priority 2001, dated 2006).

SMILES strings stand for the structures.

T1 sequence (P37288 whole entry): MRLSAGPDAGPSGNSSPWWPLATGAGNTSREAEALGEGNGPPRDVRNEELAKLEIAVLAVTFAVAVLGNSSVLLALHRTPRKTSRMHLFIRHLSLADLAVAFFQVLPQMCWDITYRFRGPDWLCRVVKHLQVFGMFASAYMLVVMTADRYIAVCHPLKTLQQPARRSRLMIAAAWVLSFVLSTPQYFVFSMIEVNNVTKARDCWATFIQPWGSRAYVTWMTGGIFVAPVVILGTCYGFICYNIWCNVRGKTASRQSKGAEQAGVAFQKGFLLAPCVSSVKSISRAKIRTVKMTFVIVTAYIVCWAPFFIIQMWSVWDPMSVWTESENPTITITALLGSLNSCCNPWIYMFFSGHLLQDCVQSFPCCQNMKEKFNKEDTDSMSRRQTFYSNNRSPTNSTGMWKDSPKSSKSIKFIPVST

The assay addresses T1, human vasopressin V1a receptor subtype (Homo sapiens, UniProt P37288).
T1 construct: host or cells: CHO cells (pZeoSV vector for the Thibonnier line)
Description: Vasopressin binding in Chinese Hamster Ovary cell membranes expressing human vasopressin V1a subtype receptors. Particulars: 100 nM, CHO cell membranes, [3H]Manning ligand, values without parentheses. In a few lines:
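Membranes from CHO cells expressing human V1a receptor were incubated with [3H]Manning ligand (added as 20 μL of 8 nM) in pH 7.4 Tris buffer with MgCl2, BSA and protease inhibitors, 60 min at room temperature. Bound radioactivity was counted after filtration; values are percent inhibition at a stated concentration or IC50.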
For the compound `COc1cc(C(=O)N2Cc3ccc(C(=O)NCCC4CCCN4C)n3Cc3ccccc32)ccc1-n1c(C)ccc1C` (stereo not shown) [Example 315, 10-[4-(2,5-Dimethyl-1H-pyrrol-1-yl)-3-methoxybenzoyl]-N-[2-(1-methyl-2-pyrrolidinyl)ethyl]-10,11-dihydro-5H-pyrrolo[2,1-c][1,4]benzodiazepine-3-carboxamide], the inhibition (usually the drop in the measured response relative to a control, in per cent) at 0.1 µM amounted to 7%.

On to `COc1ccccc1-c1ccc(C(=O)N2Cc3ccc(C(=O)N4CCN(C)CC4)n3Cc3ccccc32)cc1OC` [Example 56, {10-[(2,2′-Dimethoxy[1,1′-biphenyl]-4-yl)carbonyl]-10,11-dihydro-5H-pyrrolo[2,1-c][1,4]benzodiazepin-3-yl}(4-methyl-1-piperazinyl)methanone], for which the inhibition at 0.1 µM stood at 2%.

`CCOc1ccccc1-c1cc(OC)c(C(=O)N2Cc3cccn3Cc3ccccc32)cc1Cl` [Example 17, 10-{[6-Chloro-3-methoxy-2′-ethoxy[1,1′-biphenyl]-4-yl]carbonyl}-10,11-dihydro-5H-pyrrolo[2,1-c][1,4]benzodiazepine]: the inhibition at 0.1 µM is -11%.

For the compound `Cc1cc(C(=O)N2Cc3ccc(C(=O)n4ccnc4)n3Cc3ccccc32)ccc1-c1ccccc1C(F)(F)F` [Example 294, 1H-Imidazol-1-yl(10-{[2-methyl-2′-(trifluoromethyl)[1,1′-biphenyl]-4-yl]carbonyl}-10,11-dihydro-5H-pyrrolo[2,1-c][1,4]benzodiazepin-3-yl)methanone], the inhibition at 0.1 µM was -3%.

For the compound `COc1ccccc1-c1ccc(C(=O)N2Cc3ccc(C(=O)NCCCN(C)C)n3Cc3ccccc32)cc1C` [Example 72, N-[3-(Dimethylamino)propyl]-10-[(2′-methoxy-2-methyl[1,1′-biphenyl]-4-yl)carbonyl]-10,11-dihydro-5H-pyrrolo[2,1-c][1,4]benzodiazepine-3-carboxamide], the inhibition at 0.1 µM worked out at 8%.

For the compound `COc1cc(C(=O)N2Cc3ccc(C(=O)N4CCCN(C)CC4)n3Cc3ccccc32)ccc1-c1ccccc1C` [Example 66, {10-[(2-Methoxy-2′-methyl[1,1′-biphenyl]-4-yl)carbonyl]-10,11-dihydro-5H-pyrrolo[2,1-c][1,4]benzodiazepin-3-yl}(4-methyl-1,4-diazepan-1-yl)methanone], the inhibition at 0.1 µM turned out to be 52%.

On to `COc1cc(C(=O)N2Cc3ccc(C(=O)n4ccnc4)n3Cc3ccccc32)ccc1-c1ccccc1C` [Example 290, 1H-Imidazol-1-yl-{10-[(2-methoxy-2′-methyl[1,1′-biphenyl]-4-yl)carbonyl]-10,11-dihydro-5H-pyrrolo[2,1-c][1,4]benzodiazepin-3-yl}methanone], for which the inhibition at 0.1 µM was 47%.

With `COc1cccc(-c2ccc(C(=O)N3Cc4ccc(C(=O)N5CCN(CCCN(C)C)CC5)n4Cc4ccccc43)cc2OC)c1` [Example 255, {10-[(2,3′-Dimethoxy[1,1′-biphenyl]-4-yl)carbonyl]-10,11-dihydro-5H-pyrrolo[2,1-c][1,4]benzodiazepin-3-yl}{4-[3-(dimethylamino)propyl]-1-piperazinyl}methanone], the inhibition at 0.1 µM was determined as 53%.

In the case of `COc1ccccc1-c1ccc(C(=O)N2Cc3ccc(C(=O)n4ccnc4)n3Cc3ccccc32)cc1OC` [Example 293, {10-[(2,2′-Dimethoxy[1,1′-biphenyl]-4-yl)carbonyl]-10,11-dihydro-5H-pyrrolo[2,1-c][1,4]benzodiazepin-3-yl}(1H-imidazol-1-yl)methanone], the inhibition at 0.1 µM stood at 2%.

Consider `COc1cc(C(=O)N2Cc3ccc(C(=O)N4CCN(CCCN(C)C)CC4)n3Cc3ccccc32)ccc1-c1cccc2ccccc12` [Example 253, {4-[3-(Dimethylamino)propyl]-1-piperazinyl}{10-[3-methoxy-4-(1-naphthyl)benzoyl]-10,11-dihydro-5H-pyrrolo[2,1-c][1,4]benzodiazepin-3-yl}methanone], for which the inhibition at 0.1 µM came to 16%.
